Experimental data published in patent US6503449B1, “Process for the control of microbial contamination in water-based solids suspensions” (Ciba Specialty Chemicals Corporation, priority 1998, dated 2003).

Tests used:
Type in all cases: cell-based
[1] = system: Xanthomonas maltophilia and Pseudomonas mendocina; experiment: Sonication of Pigment Red 53.1 dispersion with biocide, bacterial contamination check
Excerpt: A mixture of Pigment Red 23, available from Ciba Specialty Chemicals(UK) Ltd., 215.5 parts, Emulan OG (RTM) (35% solution in water), available from BASF, 153.7 parts, tributyl phosphate, available from Albright & Wilson, 2 parts, and water, 128.8 parts, are dispersed by re-circulation through a Bachofen KDL200 bead-mill until colouristic properties are within specification of UNISPERSE (RTM) Red RBS-PI, available from Ciba Specialty Chemicals(UK) Ltd., and adjusted to pH 8.0-8.5 with 20% sodium hydroxide solution. This material is identified as containing the Gram negative bacterium, Pseudomonas putida. 50 millilitre aliquots of this dispersion containing levels of glutaraldehyde (pentane-1,5-dialdehyde), available as the trade product Protectol GDA form BASF or Ucarcide from Union Carbide, between 0 parts per million (ppm) and 2000 ppm are sonicated using a Branson MSE sonicator with a 19 mm horn probe resonating at 20 kHz with an amplitude of 6 microns. Sonication is undertaken in a 100 millilitre glass beaker, diameter 38 mm, with magnetic flea agitator and cooled in a water/ice bath to maintain temperature at 28-32° C. Bacterial growth in each sample is assessed at 5 minute intervals by streaking each dispersion on to Nutrient Agar(NA) plates and incubating the plates for a minimum of 48 hours at 30° C. The plates are then examined for bacterial colonies and expressed according to the following notation:
A mixture of Pigment Red 53.1, available from S&D Chemicals Ltd., 37 parts, Emulan OG (35% solution), 25.9 parts, 2-ethylhexanoic acid, available from Barratt Chemicals Ltd., 3 parts tributyl phosphate, 0.3 parts, and water 31.74 parts are dispersed by a single pass through a Bachofen KDL Special beadmill containing 1.0 mm Yttrium-stabilised Zirconium Oxide beads. This material is identified as containing the Gram negative bacteria, Xanthomonas maltophilia and Pseudomonas mendocina. 50 millilitre aliquots of this dispersion are treated with pentane-1,5-dialdehyde (Ucarcide 250) and CIT/MIT mixture (Acticide LG) according to the process defined in Example 1 and each sample checked for bacterial contamination according to the following table: […]

Gram negative organisms = experiment: Single/multiple pass through 2406 Nearfield Accoustical Processor with biocide, Nutrient Agar plates; conditions: 250 ppm; after one pass through the sonicator, 16 kHz and 20 kHz, 750 kg/hr; initial count 4.8×10^6 cfu per millilitre
Excerpt: (§1) A mixture of Pigment Red 23,215.5 parts, Emulan OG (RTM) (35% solution in water), 153.7 parts, tributyl phosphate, 2 parts, and water, 128.8 parts are dispersed by re-circulation through a Bachofen KDL200 bead-mill until colouristic properties are within specification of UNISPERSE (RTM) Red RBS-PI as detailed in Example 1 and adjusted to pH 8.0-8.5 with 20% sodium hydroxide solution. This material is identified as having a bacterial count of 4.8×10^6 colony-forming units (cfu) per millilitre comprised of a mixture of Gram positive and Gram negative bacteria. It is treated with 250 parts per million(ppm) of pentane 1,5-dialdehyde and pumped through a 2406 Nearfield Accoustical Processor sonicating at 16 kHz and 20 kHz respectively with a plate separation of 6 mm (approximately) at a flow rate of 750 kg/hr. Assessment bacterial activity is then done by spreading a sample of the pigment dispersion on Nutrient Agar(NA) plates and incubating at 30° C. for 48 hours. […] The temperature rise is 1° C. per pass, from a starting value of 20° C.

Gram positive organisms = experiment: as above; conditions: 250 ppm; after four passes through the sonicator, 16 kHz and 20 kHz, 750 kg/hr; initial count 4.8×10^6 cfu per millilitre
Excerpt: as §1

Structure (SMILES): O=CCCCC=O [glutaraldehyde, pentane-1,5-dialdehyde]
- bacterial contamination ([1]; 500 ppm Ucarcide 250, 3 days after sonication): +++ (heavy contamination(>10^5 cfu/ml))
- bacterial contamination ([1]; 500 ppm Ucarcide 250, 7 days after sonication): +++ (heavy contamination(>10^5 cfu/ml))
- bacterial contamination ([1]; 500 ppm Ucarcide 250, 14 days after sonication): +++ (heavy contamination(>10^5 cfu/ml))
- bacterial contamination ([1]; 500 ppm Ucarcide 250, 28 days after sonication): +++ (heavy contamination(>10^5 cfu/ml))
- bacterial contamination ([1]; 500 ppm Ucarcide 250, 90 days after sonication): +++ (heavy contamination(>10^5 cfu/ml))
- bacterial contamination ([1]; 500 ppm Ucarcide 250, sonicated 0 mins.): +++ (heavy contamination(>10^5 cfu/ml))
- bacterial contamination ([1]; 500 ppm Ucarcide 250, sonicated 5 mins.): +++ (heavy contamination(>10^5 cfu/ml))
- bacterial contamination ([1]; 500 ppm Ucarcide 250, sonicated 10 mins.): +++ (heavy contamination(>10^5 cfu/ml))
- bacterial contamination ([1]; 500 ppm Ucarcide 250, sonicated 15 mins.): +++ (heavy contamination(>10^5 cfu/ml))
- bacterial contamination ([1]; 500 ppm Ucarcide 250, sonicated 20 mins.): +++ (heavy contamination(>10^5 cfu/ml))
- bacterial contamination ([1]; 500 ppm Ucarcide 250, sonicated 25 mins.): +++ (heavy contamination(>10^5 cfu/ml))
- bacterial contamination ([1]; 500 ppm Ucarcide 250, sonicated 30 mins.): ++ (moderate contamination(10^3-10^5 cfu/ml))
- bacterial contamination ([1]; 500 ppm Ucarcide 250, sonicated 35 mins.): ++ (moderate contamination(10^3-10^5 cfu/ml))
- bacterial contamination ([1]; 500 ppm Ucarcide 250, sonicated 40 mins.): ++ (moderate contamination(10^3-10^5 cfu/ml))
- bacterial contamination ([1]; 500 ppm Ucarcide 250, sonicated 45 mins.): ++ (moderate contamination(10^3-10^5 cfu/ml))
- bacterial contamination ([1]; 500 ppm Ucarcide 250, sonicated 50 mins.): ++ (moderate contamination(10^3-10^5 cfu/ml))
- bacterial contamination ([1]; 500 ppm Ucarcide 250, sonicated 55 mins.): + (light contamination (10^0 and 10^3 cfu/ml))
- bacterial contamination ([1]; 500 ppm Ucarcide 250, sonicated 60 mins.): + (light contamination (10^0 and 10^3 cfu/ml))
- bacterial contamination ([1]; 750 ppm Ucarcide 250, 3 days after sonication): +++ (heavy contamination(>10^5 cfu/ml))
- bacterial contamination ([1]; 750 ppm Ucarcide 250, 7 days after sonication): +++ (heavy contamination(>10^5 cfu/ml))
- bacterial contamination ([1]; 750 ppm Ucarcide 250, 14 days after sonication): +++ (heavy contamination(>10^5 cfu/ml))
- bacterial contamination ([1]; 750 ppm Ucarcide 250, 28 days after sonication): +++ (heavy contamination(>10^5 cfu/ml))
- bacterial contamination ([1]; 750 ppm Ucarcide 250, 90 days after sonication): +++ (heavy contamination(>10^5 cfu/ml))
- bacterial contamination ([1]; 750 ppm Ucarcide 250, sonicated 0 mins.): +++ (heavy contamination(>10^5 cfu/ml))
- bacterial contamination ([1]; 750 ppm Ucarcide 250, sonicated 5 mins.): +++ (heavy contamination(>10^5 cfu/ml))
- bacterial contamination ([1]; 750 ppm Ucarcide 250, sonicated 10 mins.): +++ (heavy contamination(>10^5 cfu/ml))
- bacterial contamination ([1]; 750 ppm Ucarcide 250, sonicated 15 mins.): +++ (heavy contamination(>10^5 cfu/ml))
- bacterial contamination ([1]; 750 ppm Ucarcide 250, sonicated 20 mins.): +++ (heavy contamination(>10^5 cfu/ml))
- bacterial contamination ([1]; 750 ppm Ucarcide 250, sonicated 25 mins.): +++ (heavy contamination(>10^5 cfu/ml))
- bacterial contamination ([1]; 750 ppm Ucarcide 250, sonicated 30 mins.): ++ (moderate contamination(10^3-10^5 cfu/ml))
- bacterial contamination ([1]; 750 ppm Ucarcide 250, sonicated 35 mins.): ++ (moderate contamination(10^3-10^5 cfu/ml))
- bacterial contamination ([1]; 750 ppm Ucarcide 250, sonicated 40 mins.): ++ (moderate contamination(10^3-10^5 cfu/ml))
- bacterial contamination ([1]; 750 ppm Ucarcide 250, sonicated 45 mins.): ++ (moderate contamination(10^3-10^5 cfu/ml))
- bacterial contamination ([1]; 750 ppm Ucarcide 250, sonicated 50 mins.): + (light contamination (10^0 and 10^3 cfu/ml))
- bacterial contamination ([1]; 750 ppm Ucarcide 250, sonicated 55 mins.): + (light contamination (10^0 and 10^3 cfu/ml))
- bacterial contamination ([1]; 750 ppm Ucarcide 250, sonicated 60 mins.): + (light contamination (10^0 and 10^3 cfu/ml))
- bacterial contamination ([1]; 1000 ppm Ucarcide 250, 3 days after sonication): +++ (heavy contamination(>10^5 cfu/ml))
- bacterial contamination ([1]; 1000 ppm Ucarcide 250, 7 days after sonication): +++ (heavy contamination(>10^5 cfu/ml))
- bacterial contamination ([1]; 1000 ppm Ucarcide 250, 14 days after sonication): +++ (heavy contamination(>10^5 cfu/ml))
- bacterial contamination ([1]; 1000 ppm Ucarcide 250, 28 days after sonication): +++ (heavy contamination(>10^5 cfu/ml))
- bacterial contamination ([1]; 1000 ppm Ucarcide 250, 90 days after sonication): +++ (heavy contamination(>10^5 cfu/ml))
- bacterial contamination ([1]; 1000 ppm Ucarcide 250, sonicated 0 mins.): +++ (heavy contamination(>10^5 cfu/ml))
- bacterial contamination ([1]; 1000 ppm Ucarcide 250, sonicated 5 mins.): +++ (heavy contamination(>10^5 cfu/ml))
- bacterial contamination ([1]; 1000 ppm Ucarcide 250, sonicated 10 mins.): +++ (heavy contamination(>10^5 cfu/ml))
- bacterial contamination ([1]; 1000 ppm Ucarcide 250, sonicated 15 mins.): +++ (heavy contamination(>10^5 cfu/ml))
- bacterial contamination ([1]; 1000 ppm Ucarcide 250, sonicated 20 mins.): ++ (moderate contamination(10^3-10^5 cfu/ml))
- bacterial contamination ([1]; 1000 ppm Ucarcide 250, sonicated 25 mins.): ++ (moderate contamination(10^3-10^5 cfu/ml))
- bacterial contamination ([1]; 1000 ppm Ucarcide 250, sonicated 30 mins.): + (light contamination (10^0 and 10^3 cfu/ml))
- bacterial contamination ([1]; 1000 ppm Ucarcide 250, sonicated 35 mins.): + (light contamination (10^0 and 10^3 cfu/ml))
- bacterial contamination ([1]; 1000 ppm Ucarcide 250, sonicated 40 mins.): + (light contamination (10^0 and 10^3 cfu/ml))
- bacterial contamination ([1]; 1000 ppm Ucarcide 250, sonicated 45 mins.): + (light contamination (10^0 and 10^3 cfu/ml))
- bacterial contamination ([1]; 1000 ppm Ucarcide 250, sonicated 50 mins.): + (light contamination (10^0 and 10^3 cfu/ml))
- bacterial contamination ([1]; 1000 ppm Ucarcide 250, sonicated 55 mins.): + (light contamination (10^0 and 10^3 cfu/ml))
- bacterial contamination ([1]; 1000 ppm Ucarcide 250, sonicated 60 mins.): + (light contamination (10^0 and 10^3 cfu/ml))
- bacterial contamination ([1]; 1500 ppm Ucarcide 250, 3 days after sonication): +++ (heavy contamination(>10^5 cfu/ml))
- bacterial contamination ([1]; 1500 ppm Ucarcide 250, 7 days after sonication): +++ (heavy contamination(>10^5 cfu/ml))
- bacterial contamination ([1]; 1500 ppm Ucarcide 250, 14 days after sonication): +++ (heavy contamination(>10^5 cfu/ml))
- bacterial contamination ([1]; 1500 ppm Ucarcide 250, 28 days after sonication): +++ (heavy contamination(>10^5 cfu/ml))
- bacterial contamination ([1]; 1500 ppm Ucarcide 250, 90 days after sonication): +++ (heavy contamination(>10^5 cfu/ml))
- bacterial contamination ([1]; 1500 ppm Ucarcide 250, sonicated 0 mins.): +++ (heavy contamination(>10^5 cfu/ml))
- bacterial contamination ([1]; 1500 ppm Ucarcide 250, sonicated 5 mins.): +++ (heavy contamination(>10^5 cfu/ml))
- bacterial contamination ([1]; 1500 ppm Ucarcide 250, sonicated 10 mins.): +++ (heavy contamination(>10^5 cfu/ml))
- bacterial contamination ([1]; 1500 ppm Ucarcide 250, sonicated 15 mins.): +++ (heavy contamination(>10^5 cfu/ml))
- bacterial contamination ([1]; 1500 ppm Ucarcide 250, sonicated 20 mins.): ++ (moderate contamination(10^3-10^5 cfu/ml))
- bacterial contamination ([1]; 1500 ppm Ucarcide 250, sonicated 25 mins.): + (light contamination (10^0 and 10^3 cfu/ml))
- bacterial contamination ([1]; 1500 ppm Ucarcide 250, sonicated 30 mins.): + (light contamination (10^0 and 10^3 cfu/ml))
- bacterial contamination ([1]; 1500 ppm Ucarcide 250, sonicated 35 mins.): + (light contamination (10^0 and 10^3 cfu/ml))
- bacterial contamination ([1]; 1500 ppm Ucarcide 250, sonicated 40 mins.): + (light contamination (10^0 and 10^3 cfu/ml))
- bacterial contamination ([1]; 1500 ppm Ucarcide 250, sonicated 45 mins.): + (light contamination (10^0 and 10^3 cfu/ml))
- bacterial contamination ([1]; 1500 ppm Ucarcide 250, sonicated 50 mins.): + (light contamination (10^0 and 10^3 cfu/ml))
- bacterial contamination ([1]; 1500 ppm Ucarcide 250, sonicated 55 mins.): + (light contamination (10^0 and 10^3 cfu/ml))
- bacterial contamination ([1]; 1500 ppm Ucarcide 250, sonicated 60 mins.): + (light contamination (10^0 and 10^3 cfu/ml))
- bacterial activity on Nutrient Agar plates, Gram negative organisms (Gram negative organisms): no Gram negative organisms are evident
- bacterial activity on Nutrient Agar plates, Gram positive organisms (Gram positive organisms): no Gram positive organisms are found
